Consider one molecule from US20210161825A1, “CHLOROQUINE-BASED MATERIALS FOR THE TREATMENT OF DISEASES” (BOARD OF REGENTS OF THE UNIVERSITY OF NEBRASKA, priority 2018, published 2021).

The nature of series [1]: Liver pharmacokinetics and distribution after single oral dose in colitis mice. The note with it: male, C57BL/6, mouse, single oral dose 30 mg/kg CQ equivalent, pCQ = total HCQ. In kind it is in vivo. As to the method:
(§1) Male C57BL/6 mice (6 weeks old, 18-20 g) were obtained from Charles River Laboratories and used for all in vivo studies. All animal experiments were conducted according to the protocol approved by the University of Nebraska Medical Center Institutional Animal Care and Use Committee. C. rodentium was used to induce colitis in mice. Bacterial glycerol stock was streaked onto LB agar plates and the bacterial colonies were grown overnight at 37° C. A single colony was inoculated into 5 ml of 2% LB broth and incubated at 37° C., 280 rpm overnight to obtain a saturated primary culture. On the day of the experiment (Day 0), 2 ml of the primary culture was added into 300 ml of LB broth and the inoculum was placed on a shaker at 37° C. at 280 rpm for 6 hours. Bacterial optical density was measured at 600 nm. Bacteria were diluted with LB broth and delivered to mice (n=15) via oral gavage in a 100 μL volume containing 5×10^8 colony forming units (CFU). Healthy control group (n=5) was orally administered 100 μL of LB broth.
(§2) The pharmacokinetics and biodistribution of single dose pCQ was evaluated in a mouse model of IBD. Colitis was induced as described above and on day 14, mice were given a single dose of HCQ or pCQ in 200 μl of deionized water via oral gavage equivalent to 30 mg/kg HCQ. Blood was collected from the submandibular vein at 0.5, 1, 2, 4, 8, and 24 h post-administration. The animals were sacrificed, and organs harvested at 0.5, 2, 8, and 24 h post-administration and stored at −80° C. until further use. The mice were randomized to selected sampling times so that three blood samples and one terminal tissue collection were obtained from each.
(§3) Blood, tissue and fecal samples were processed by two methods to determine free HCQ and total HCQ. For the first method, HCQ was isolated by a simple extraction from the organs as described in Murry et al., J. Chrom. B., (2018) 1072, 320-327. The second method utilized base hydrolysis to release HCQ covalently bound to pCQ and subsequent HCQ extraction using solid phase extraction (SPE). Tissues and feces were homogenized in water prior to loading to the SPE cartridge. The calibration and quality control samples were separately prepared for HCQ and pCQ by spiking 10 μl of appropriate calibration stock of HCQ and pCQ, in 100 μl of blank biomatrix, and 10 μl of internal standard solution (1.0 μg/ml) added. For the study, 25 μl of blood and 100 μl of tissue homogenate were used. 400 μl of 1 M NaOH, 600 μl water and 100 μl methanol were added and the samples were incubated at 50° C. for 1 h to hydrolyze HCQ from the pCQ. […]
(§4) The pharmacokinetic parameters of HCQ and pCQ in blood and tissues were calculated using non-compartmental analysis with Phoenix WinNonlin 6.3 (Pharsight Corporation). […]

The next series concerns IL-2. The experiment in a line: Colon cytokine mRNA by RT-PCR, IL-2. The following applies: seven oral doses over 14 days; vs untreated. In kind it is in vivo, mouse.
The nature of series [2]: Colon pharmacokinetics and distribution after single oral dose in colitis mice. The format is in vivo. The note with it: male, C57BL/6, mouse, single oral dose 30 mg/kg CQ equivalent, pCQ = total HCQ. As to the method:
as §1, §2, §3, §4

Series [3] deals with mice with C. rodentium colitis. Kind of series: Therapeutic efficacy, colon histology (H&E) in C. rodentium colitis. The format is in vivo, mouse. The following applies: oral gavage every other day, 30 mg/kg HCQ equivalent, vs untreated. As to the method:
Male C57BL/6 mice (6 weeks old, 18-20 g) were obtained from Charles River Laboratories and used for all in vivo studies. All animal experiments were conducted according to the protocol approved by the University of Nebraska Medical Center Institutional Animal Care and Use Committee. C. rodentium was used to induce colitis in mice. Bacterial glycerol stock was streaked onto LB agar plates and the bacterial colonies were grown overnight at 37° C. A single colony was inoculated into 5 ml of 2% LB broth and incubated at 37° C., 280 rpm overnight to obtain a saturated primary culture. […] Bacterial optical density was measured at 600 nm. […]
The longitudinally opened colons were rolled into a Swiss roll from distal to proximal end. […] The stained sections were evaluated by a pathologist without the knowledge of the identity of the samples using a light microscope. […] Crypt heights were measured using ImageJ software, with 10 measurements taken in distal colons of each mouse. Only well-oriented and intact crypts were measured. […] CC3 positive cells in the entire colon roll were counted at 20× magnification. Results were expressed as mean CC3 positive cells per entire colon roll. CD68 positive cells were counted in five randomly chosen areas in the colon roll at high power field (HPF). Results were expressed as mean of CD68 positive cells per HPF.

Series [4] in a line: Blood pharmacokinetics after single oral dose in C. rodentium colitis mice. The format is in vivo, mouse. The note with it: for Cmax: pCQ = total (polymer-bound + hydrolyzed) HCQ. As to the method:
as §1, §2
Blood, tissue and fecal samples were processed by two methods to determine free HCQ and total HCQ. For the first method, HCQ was isolated by a simple extraction from the organs as described in Murry et al., J. Chrom. B., (2018) 1072, 320-327. The second method utilized base hydrolysis to release HCQ covalently bound to pCQ and subsequent HCQ extraction using solid phase extraction (SPE). Tissues and feces were homogenized in water prior to loading to the SPE cartridge. The calibration and quality control samples were separately prepared for HCQ and pCQ by spiking 10 μl of appropriate calibration stock of HCQ and pCQ, in 100 μl of blank biomatrix, and 10 μl of internal standard solution (1.0 μg/ml) added. For the study, 25 μl of blood and 100 μl of tissue homogenate were used. 400 μl of 1 M NaOH, 600 μl water and 100 μl methanol were added and the samples were incubated at 50° C. for 1 h to hydrolyze HCQ from the pCQ. Subsequently, 400 μ12% formic acid was added and the samples were vortexed for 30 s and centrifuged at 1301×g for 10 min. The SPE was carried out using Oasis HLB 3cc, 60 mg extraction Cartridge (Waters, Inc). Cartridges were pre-conditioned with 1 ml acetonitrile followed by 1 ml water. Samples were loaded to the cartridges and washed with 2 ml of aqueous 15% methanol and dried at high vacuum for 15 min. Analytes were eluted with 2 ml of acetonitrile. The eluents were collected in glass tubes and dried under nitrogen in water bath at 50° C. The dry residues were reconstituted in 400 μ1 0.1% formic acid:methanol mixture (60:40) and centrifuged at 13000×g and 10 μl supernatant was injected into the HPLC. The LC-MS/MS conditions were as previously described. (Murry et al., J. Chrom. B., (2018) 1072, 320-327.) The assay was linear over the range of 1 to 2000 ng/mL.
The pharmacokinetic parameters of HCQ and pCQ in blood and tissues were calculated using non-compartmental analysis with Phoenix WinNonlin 6.3 (Pharsight Corporation). The maximum concentration (Cmax) and time to Cmax (Tmax) were obtained from the visual inspection of the concentration-time plot. […]

The test system of another series is IL-6. The experiment in a line: Colon cytokine mRNA by RT-PCR, IL-6. The following applies: seven oral doses over 14 days; vs untreated. In kind it is in vivo, mouse.
A further series deals with CD68 positive cells. Kind of series: Macrophage infiltration in the colon (CD68 staining). In kind it is in vivo, mouse. The following applies: oral gavage every other day, 30 mg/kg HCQ equivalent, day 14; vs untreated.
Setting [5] is: male, C57BL/6, mouse, whole blood, blood, single oral dose 30 mg/kg HCQ equivalent, colitis mice, pCQ = total HCQ.

The structures appear in SMILES notation.

Procedure for CD68 positive cells: (§5) Colitis was induced as stated above and mice were randomly assigned to healthy, HCQ, and pCQ treatment groups (n=5) and untreated group (n=8). Starting day 1, the mice received oral gavage of either HCQ or pCQ every other day (30 mg/kg HCQ equivalent in 200 μl sterile deionized water). Untreated and healthy controls were administered 200 μl sterile deionized water. On day 14, the mice were sacrificed and the colons were harvested. The colon was opened longitudinally, cleaned of fecal matter, and excised into two parts along the length, which were stored accordingly for determination of cytokine mRNA levels by RT-PCR and histological analysis.
Procedure for IL-2: as §5
(§6) Colon samples from the therapeutic study were stored in RNAlater™ (Thermo Fisher Scientific Inc.) at 4° C. for 48 hours to allow sufficient time for tissue penetration followed by removal of excess solution. The tissues were then stored at −80° C. until further processing. […] The extracted mRNA was quantified using Nanodrop Onec UV-Vis spectrophotometer (Thermo Fisher Scientific Inc.). […] A volume corresponding to 1 μg of RNA as determined by UV spectrometer was used for cDNA synthesis. […] Results obtained from the RT-PCR were analyzed by Ct method to determine the fold change in gene expression.
Procedure for IL-6: as §5, §6

With `CCN(CCO)CCCC(C)Nc1ccnc2cc(Cl)ccc12` (centres unmarked) [HCQ, Hydroxychloroquine], in series [1], the area under the curve AUC(0-inf) (commonly total exposure, with the tail of the curve extrapolated) came out at 176 µg·h/mL; the exposure AUC(0-t) (commonly exposure summed from dosing to a finite time, without extrapolation to infinity) came out at 168 µg·h/mL; the Cmax (in general, the maximum level reached in the sampled fluid or tissue) worked out at 12800 ng/mL; the time to peak (Tmax) – broadly, the time from dosing to the highest level – turned out to be 2 h. Besides, the “colon IL-2 expression (mRNA)” value with IL-2 is given as “upregulated”. In addition, in series [2], the AUC(0-inf) came to 209 µg·h/mL, the AUC(0-t) stood at 166 µg·h/mL, the Cmax is 10300 ng/mL and the Tmax turned out to be 8 h. Also, the colon crypt length entry in series [3] (day 14) was “significantly reduced”. Also, the “colon inflammation and epithelial injury (H&E)” value in series [3] (sacrifice day 14) is “reduced the colon inflammation and eased the epithelial injury”. In addition, the highest concentration (Cmax) in series [4] (blood, single oral dose 30 mg/kg HCQ equivalent, colitis mice, 30 mg/kg) is given as 2,343 ± 46 ng/ml. In addition, the “AUC0-∞” value in series [4] (blood, single oral dose 30 mg/kg HCQ equivalent, colitis mice, pCQ = total HCQ, 30 mg/kg) is listed as 28,182 ± 1476^ h × ng/ml. In addition, the bioavailability (usually the share of a dose that reaches the circulation, judged against a reference dose that is usually intravenous) in series [4] (male, C57BL/6, mouse, whole blood, 30 mg/kg, oral vs i.v., read-out: absolute bioavailability (oral to i.v.)) is 80%. Also, the Cmax in series [4] (male, C57BL/6, mouse, whole blood, po, 30 mg/kg, blood, single oral dose 30 mg/kg HCQ equivalent, colitis mice, read-out: Cmax) worked out at 2340 ng/mL. In series [4] (male, C57BL/6, mouse, whole blood, po, 30 mg/kg, blood, single oral dose 30 mg/kg HCQ equivalent, colitis mice, pCQ = total HCQ), the area under the curve AUC(0-inf) came out at 28.2 µg·h/mL. For the same molecule, in series [4] (setting [5]), the area under the curve AUC(0-t) turned out to be 26.4 µg·h/mL; the CL/F (usually the apparent clearance, not corrected for the fraction that reaches the circulation) is 18.3 mL/min/kg; the mean residence time (MRT) (usually a mean duration of stay, worked out from the concentration-time curve) is 6.8 ± 0.6 h; the time of peak concentration (Tmax) turned out to be 3.3 ± 1.2 h. For the same molecule, the half-life (in general, how long it takes for the measured level to halve) in series [4] (setting [5]) was 5.6 ± 1.9 h. The “colon IL-6 expression (mRNA)” value in the series on IL-6 is listed as “statistically significant reduction”. Moreover, in the series with CD68 positive cells, the “macrophage infiltration (CD68 positive cells per HPF)” value is listed as “statistically significant reduction”.
